Measurements as given in patent US4208420A, “New benzo [d] thiazole derivatives, process for their preparation and their therapeutic applications” (priority 1977, dated 1980).

Assays:
isolated saphena vein = assay: action on the unstriated fibers of the isolated saphena vein, in vitro; set-up: species or system dogs; settings: for Action on isolated veins: at 2 × 10^-6 g/ml
From the text: (§1) research of an action on the unstriated fibers of the isolated saphena vein in dogs, and of the isolated ear artery of rabbits, in vitro.

acute toxicity, in mice = type: in vivo; settings: for LD50: mouse, in vivo, mice
Procedure: (§2) The test materials were administered as the hydrochlorides, either intraperitoneally (or intravenously, in the course of cardiovascular tests), or orally.
Acute toxicity, in mice, is low, both intraperitoneally and orally.

[1] = tested on: reserpine-induced palpebral ptosis; assay: antagonism of reserpine-induced palpebral ptosis, in rats; type: in vivo; settings: Rattus norvegicus, po, as hydrochloride
Procedure: antagonism of reserpine-induced palpebral ptosis, in rats; The test materials were administered as the hydrochlorides, either intraperitoneally (or intravenously, in the course of cardiovascular tests), or orally.

isolated ear artery = assay: action on the unstriated fibers of the isolated ear artery, in vitro; set-up: species or system rabbits; settings: for Action on isolated arteries: at 2 × 10^-6 g/ml
From the text: as §1

[2] = tested on: blood pressure, femoral rate of flow; assay: cardiovascular action: blood pressure and femoral rate of flow, in dogs; type: in vivo; settings: i.v.
Procedure: determination of the blood pressure, of the femoral rate of flow and of the heart rate, and research for an antagonism or a potentiation of the catecholamines (epinephrine norepinephrine) on said parameters, in dogs; The test materials were administered as the hydrochlorides, either intraperitoneally (or intravenously, in the course of cardiovascular tests), or orally.

[3] = tested on: edema of the paw on subcutaneous carrageenin injection; assay: inhibition of edema of the paw on subcutaneous carrageenin injection, in rats; type: in vivo; settings: Rattus norvegicus, po, read-out: Anti-inflammatory action ED50 p.o.
Procedure: inhibition of edema of the paw on subcutaneous carrageenin injection, in rats; The test materials were administered as the hydrochlorides, either intraperitoneally (or intravenously, in the course of cardiovascular tests), or orally.

food intake = assay: anorexiant effect (decreased food intake, in rats); type: in vivo; settings: at 3 mg/kg, p.o.
Procedure: as §2
a central stimulant effect (increase of spontaneous motility, of amphetamine-induced stereotypes; of the antagonism of reserpine), sometimes accompanied by an anorexiant effect (decreased food intake, in rats);

[4] = tested on: d-amphetamine-induced stereotypes; assay: potentiation of d-amphetamine-induced stereotypes, in rats; type: in vivo; settings: at 3 mg/kg, p.o.
Procedure: potentiation of d-amphetamine-induced stereotypes, in rats;
as §2

[5] = tested on: pain, in mice placed on a heating plate; assay: Eddy test: inhibition of pain, in mice placed on a heating plate; type: in vivo; settings: Mus musculus, po, read-out: Analgesic action, Eddy test ED50 p.o.
Procedure: inhibition of pain, in mice placed on a heating plate (Eddy test) The test materials were administered as the hydrochlorides, either intraperitoneally (or intravenously, in the course of cardiovascular tests), or orally.

[6] = tested on: pain contractions subsequent to intraperitoneal injection of 0.75% acetic acid; assay: Koster test: antagonism to pain contractions after intraperitoneal acetic acid, in mice; type: in vivo; settings: Mus musculus, po, read-out: Analgesic action, Koster test ED50 p.o.
Procedure: antagonism to the pain contractions subsequent to intraperitoneal injection of 0.75% acetic acid, in mice (Koster test) The test materials were administered as the hydrochlorides, either intraperitoneally (or intravenously, in the course of cardiovascular tests), or orally.

[7] = tested on: spontaneous motor activity; assay: spontaneous motor activity, in mice; type: in vivo; settings: at 3 mg/kg, p.o.
Procedure: determination of the spontaneous motor activity, in mice; The test materials were administered as the hydrochlorides, either intraperitoneally (or intravenously, in the course of cardiovascular tests), or orally.

[8] = tested on: gastric ulcers due to stress; assay: inhibition of gastric ulcers due to stress, in rats; type: in vivo
hypoxic asphyxia = assay: cerebral protecting effect against hypoxic asphyxia under a reduced oxygen pressure; type: in vivo

Row | Structure (SMILES) | Action on isolated veins (isolated saphena vein) | LD50 (acute toxicity, in mice; ip) | LD50 (acute toxicity, in mice; po) | inhibition at 10 mg/kg [1] | Action on isolated arteries (isolated ear artery) | Cardiovascular action: blood pressure ([2]; 0.5 mg/kg) | Cardiovascular action: blood pressure ([2]; 1-5 mg/kg) | ED50 [3] | Anorexiant action (food intake) | Action on amphetamine-induced stereotypes [4] | ED50 [5] | ED50 [6] | Cardiovascular action: blood pressure ([2]; 1 mg/kg) | Action on the isolated vein (isolated saphena vein; concentration not given) | Action on spontaneous motility [7] | toxicity at the active dosages (acute toxicity, in mice; at the active dosages) | Action on the isolated artery (isolated ear artery; concentration not given) | Cardiovascular action: femoral rate of flow ([2]; 1-5 mg/kg) | inhibiting effect on the development of gastric ulcers due to stress [8] | cerebral protecting effect against hypoxic asphyxia (hypoxic asphyxia)
1 | Cc1nc2c(s1)CC(N)CC2.Cl (centres unmarked) [Example 1, 2-Methyl-6-amino-4,5,6,7-tetrahydro-benzo[d]thiazole hydrochloride] | Contraction | < 100 mg/kg | > 200 mg/kg | 40% | Contraction | Hypotension | Hypertension | 30 mg/kg |  |  |  |  |  |  |  |  |  |  |  | 
2 | CNC1CCc2nc(C)sc2C1 (centres unmarked) [Example 2, 2-Methyl-6-methylamino-4,5,6,7-benzo[d]thiazole] | Contraction | ≥ 100 mg/kg | > 200 mg/kg |  | Contraction | Hypotension |  | ≤ 10 mg/kg | anorexiant action | Increase | 3 mg/kg | 30 mg/kg | Hypertension |  |  |  |  |  |  | 
3 | CNC1CCc2ncsc2C1.Cl (centres unmarked) [Example 3, 6-Methylamino-4,5,6,7-tetrahydro-benzo[d]thiazole hydrochloride] |  | > 200 mg/kg | > 200 mg/kg |  |  |  | Hypertension | < 30 mg/kg | Anorexiant action | Increase | ≤ 3 mg/kg | 5 mg/kg |  | Contraction | Increase | does not exhibit noteworthy toxicity | 0 | substantial increase | potent inhibiting effect | marked cerebral protecting effect
4 | CNC1CCCc2scnc21 (centres unmarked) [Example 4, 4-Methylamino-4,5,6,7-tetrahydro-benzo[d]thiazole] |  | > 200 mg/kg | > 200 mg/kg |  |  |  |  |  |  |  |  |  |  |  |  |  |  |  |  | 
5 | NC1CCc2scnc2C1 (centres unmarked) [Example 7, 5-Amino-4,5,6,7-tetrahydro-benzo[d]thiazole] |  | > 200 mg/kg | > 200 mg/kg |  |  |  |  |  |  |  |  |  |  |  |  |  |  |  |  | 
